The values that follow come from patent US20080070888A1, “AZETIDINE AND AZETIDONE DERIVATIVES USEFUL IN TREATING PAIN AND DISORDERS OF LIPID METABOLISM” (priority 2006, published 2008).

This test deals with T1, CaV3.2 (Homo sapiens, UniProt O95180).
T1 construct: expressed in transfected cells; host or cells: HEK cells, stably transfected; human Kir2.1 co-expressed
As to the kind of experiment: CaV3.2 assay: functional evaluation of T-type calcium currents (IonWorks HT screen for hCaV3.2 / conventional whole cell patch clamp) in stably transfected HEK cells. It is filed as cell-based. From the text:
Functional evaluation of voltage-gated ion channels was used to determine potency and/or single concentration efficacy of proprietary compounds. Two different methodologies were used to measure ion currents: the IonWorks HT (Molecular Devices, Sunnyvale, Calif.) a moderate throughput voltage clamp screening platform that utilizes 96-well compound plates and conventional whole cell patch clamp for lower throughput, higher fidelity determinations.
HEK cells were transiently transfected and then selected for stable heterologous expression of different channel proteins of interest. Calcium channel cell lines expressed a resting potassium current, human Kir2.1, and the pore forming α-subunit of voltage-gated calcium channels. In the case of Cav2.1 cells the auxiliary subunit, β2a, was also expressed. Calcium channel lines that were used to generate the data in this document expressed either human Cav3.2, rat Cav3.2 or human Cav2.1. The human heart sodium channel, hNav1.5, was stably expressed in CHO cells. These cells were licensed from the University of Pennsylvania.
Cell lines were grown at 37° C. in humidified incubators, equilibrated with 95% air/5% CO2. CHO cells were grown in Ham's F-12 medium. HEK cells were grown in DMEM. All media were supplemented with 10% heat-inactivated fetal bovine serum, penicillin, streptomycin and appropriate selection antibiotics (zeocin, geneticin and/or hygromycin). Cells were passaged when 80% confluent or less.
Ionworks Screen for hCaV3.2
The extracellular buffer for experiments using this instrument contained the following (mM) (NaCl 125, HEPES 10, KCl 5.4, CaCl2 1.8, MgCl2 1.8, 0.2 BaCl2 pH 7.35). […]
Experiments were performed at room temperature. […] During this time leak currents were measured during a step to −110 mV (200 milliseconds). […]
T-type currents were measured as the peak inward current minus the current at the end of the 250 msec step to −20 mV. […] After incubation with compound for 10 minutes currents were measured again. […] For each compound, 8-point concentration-effect relationships were measured with ½ log serial dilutions. […]
Background: The patch-clamp technique gives a direct electrical read-out from membranes.

SMILES strings stand for the structures. Where a name gives a salt, the structure may show the parent alone.

T1 sequence (O95180 whole entry): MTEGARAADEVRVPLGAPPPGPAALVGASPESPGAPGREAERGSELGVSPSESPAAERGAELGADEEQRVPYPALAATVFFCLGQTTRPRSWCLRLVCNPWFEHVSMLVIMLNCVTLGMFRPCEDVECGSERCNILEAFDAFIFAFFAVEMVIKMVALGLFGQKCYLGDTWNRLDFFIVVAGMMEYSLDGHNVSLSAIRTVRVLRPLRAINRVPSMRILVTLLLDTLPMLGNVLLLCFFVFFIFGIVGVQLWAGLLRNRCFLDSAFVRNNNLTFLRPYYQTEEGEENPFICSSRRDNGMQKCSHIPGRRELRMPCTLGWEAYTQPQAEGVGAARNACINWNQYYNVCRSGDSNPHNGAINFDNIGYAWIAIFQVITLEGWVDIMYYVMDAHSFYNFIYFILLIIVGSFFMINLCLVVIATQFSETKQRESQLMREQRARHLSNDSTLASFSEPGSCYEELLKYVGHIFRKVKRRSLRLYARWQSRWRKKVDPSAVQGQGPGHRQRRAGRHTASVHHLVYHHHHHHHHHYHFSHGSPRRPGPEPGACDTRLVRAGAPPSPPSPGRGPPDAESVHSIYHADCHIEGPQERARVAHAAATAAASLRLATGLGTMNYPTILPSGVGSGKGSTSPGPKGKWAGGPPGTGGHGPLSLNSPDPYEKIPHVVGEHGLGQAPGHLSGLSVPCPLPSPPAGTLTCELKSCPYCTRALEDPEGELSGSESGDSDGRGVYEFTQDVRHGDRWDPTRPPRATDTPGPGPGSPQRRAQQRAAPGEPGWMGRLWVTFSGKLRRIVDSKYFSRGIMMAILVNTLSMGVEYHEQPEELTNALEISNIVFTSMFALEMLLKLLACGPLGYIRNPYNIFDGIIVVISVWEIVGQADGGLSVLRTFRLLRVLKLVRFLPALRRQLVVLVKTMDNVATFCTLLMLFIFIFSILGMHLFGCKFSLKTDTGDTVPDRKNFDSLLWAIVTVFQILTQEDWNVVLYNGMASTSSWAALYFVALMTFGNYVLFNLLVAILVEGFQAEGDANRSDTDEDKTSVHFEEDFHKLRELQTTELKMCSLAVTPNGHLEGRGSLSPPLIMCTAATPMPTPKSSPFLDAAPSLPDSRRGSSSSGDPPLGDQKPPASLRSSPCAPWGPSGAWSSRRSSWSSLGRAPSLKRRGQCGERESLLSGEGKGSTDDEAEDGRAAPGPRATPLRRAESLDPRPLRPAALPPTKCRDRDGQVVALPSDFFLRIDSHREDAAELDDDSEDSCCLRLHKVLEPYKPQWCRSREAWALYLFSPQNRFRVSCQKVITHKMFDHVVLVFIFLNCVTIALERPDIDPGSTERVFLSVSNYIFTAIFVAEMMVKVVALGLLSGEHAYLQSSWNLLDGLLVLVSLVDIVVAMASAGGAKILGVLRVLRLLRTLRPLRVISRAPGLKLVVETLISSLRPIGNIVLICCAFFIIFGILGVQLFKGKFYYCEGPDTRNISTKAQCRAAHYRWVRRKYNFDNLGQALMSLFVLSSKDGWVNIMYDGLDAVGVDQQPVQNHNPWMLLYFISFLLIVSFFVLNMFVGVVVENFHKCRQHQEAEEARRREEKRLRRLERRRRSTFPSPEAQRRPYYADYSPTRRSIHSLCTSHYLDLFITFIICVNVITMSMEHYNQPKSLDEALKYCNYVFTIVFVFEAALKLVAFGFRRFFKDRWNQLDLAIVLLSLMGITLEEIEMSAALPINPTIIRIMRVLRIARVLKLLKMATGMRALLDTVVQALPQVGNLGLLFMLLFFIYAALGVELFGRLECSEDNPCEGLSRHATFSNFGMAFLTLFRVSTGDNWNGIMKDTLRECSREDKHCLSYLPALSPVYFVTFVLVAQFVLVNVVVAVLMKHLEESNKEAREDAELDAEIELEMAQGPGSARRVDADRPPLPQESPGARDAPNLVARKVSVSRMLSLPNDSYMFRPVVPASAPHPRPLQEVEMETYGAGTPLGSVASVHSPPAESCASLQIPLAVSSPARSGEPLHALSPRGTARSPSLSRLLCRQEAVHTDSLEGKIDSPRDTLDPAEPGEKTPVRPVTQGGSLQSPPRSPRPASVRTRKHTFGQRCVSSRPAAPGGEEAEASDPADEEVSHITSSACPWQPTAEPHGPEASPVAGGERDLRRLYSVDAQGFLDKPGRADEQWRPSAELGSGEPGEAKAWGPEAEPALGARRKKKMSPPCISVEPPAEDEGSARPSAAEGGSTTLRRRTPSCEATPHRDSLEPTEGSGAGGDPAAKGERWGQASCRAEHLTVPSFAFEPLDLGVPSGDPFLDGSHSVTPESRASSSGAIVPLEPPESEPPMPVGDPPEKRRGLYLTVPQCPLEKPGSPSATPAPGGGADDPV

The term IC50 denotes the concentration at which inhibition is half-maximal. Regarding `CC(C)N1CC2(CCN(c3nc4cc(F)c(C(F)(F)F)cc4[nH]3)CC2)C1c1ccc(Cl)cc1` (stereo not drawn) [Example 2], the IC50 stood at 0.212 µM. With `CC(C)N1CC2(CCN(c3ccccn3)CC2)C1c1ccc(Cl)cc1` (stereo not drawn) [Example 3, 1-(4-Chlorophenyl)-2-(1-methylethyl)-7-(2-pyridinyl)-2,7-diazaspiro[3.5]nonane, formic acid salt] the figure was 4.99 µM; with `CC(C)N1CC2(CCN(c3ncccn3)CC2)C1c1ccc(Cl)cc1` (stereo not drawn) [Example 4, 1-(4-Chlorophenyl)-2-(1-methylethyl)-7-(2-pyrimidinyl)-2,7-diazaspiro[3.5]nonane, formic acid salt], 8.63 µM.
